Data taken from article PMC7737769, “Pharmacological inhibition of syntenin PDZ2 domain impairs breast cancer cell activities and exosome loading with syndecan and EpCAM cargo” (Journal of Extracellular Vesicles, 2020).
Read-outs that look alike come from different tables or passages of the source.

Key:
[1] = tested on: biotinylated‐GST; assay: HTRF control with biotinylated-GST (non-specific interference with FRET signal)
Description: (§1) HTRF assays were performed in white 96Well Small VolumeHiBase Polystyrene Microplates (Greiner) with a total working volume of […], as described previously (Milhas et al., 2016). Briefly, compounds were firstly dispensed into the wells at 400 µM for the primary screen or with serial DMSO dilutions for IC50 measurement assays. Primary screening assays have been performed in monoplicate while IC50 measurements were performed in triplicates. All HTRF reagents were purchased from CisBio Bioassays and reconstituted according to the supplier protocols. The plates were spun for 3 min at 500 × g and then incubated at 4°C for 16 h. The HTRF signals were recorded on a POLAR star Omega plate reader (BMG Labtech) with an excitation filter at 337 nm and fluorescence wavelength measurement at 620 and 665 nm, an integration delay of 60 µs and an integration time of 400 µs. Results were analysed with a two‐wavelength signal ratio: [intensity (665 nm)/intensity (620 nm)] × 10^4. Percentage of inhibition was calculated using the following equation: % inhibition = [(compound signal)–(min signal)]/[(max signal)–(min signal)] × 100, where ‘max signal’ is the signal ratio with the compound vehicle alone (DMSO) and ‘min signal’ the signal ratio without protein B. For IC50 measurements, values were normalized and fitted with Prism (GraphPad software) using the following equation: Y = 100/(1+((X/ IC50)ˆHill slope)).
(§2) The search strategy for PDZ2 syntenin inhibitors was based on the PDZ targeted library developed from Enamine compound collection. The PDZ targeted library was developed to cover virtually all PDZ domains. Consequently, to create the syntenin PDZ2 focused library we used two independent paths: docking of the PDZ targeted library against structures of syntenin PDZ2 available in Protein Data Bank and a random selection from the PDZ targeted library. The docking has produced 21 virtual hits, which were added to 118 randomly selected compounds (10% of the pan PDZ library). The resultant set of 139 compounds, syntenin PDZ library was subjected to experimental validation. The primary screen was performed at 400µM using a previously validated Homogeneous Time Resolved Fluorescence (HTRF) assay (Milhas et al., 2016). HTRF is based on Fluorescence Resonance Energy Transfer (FRET) between two fluorescent reagents. In the present case, Anti‐GST‐Terbium antibody and streptavidin‐bound Dynamic2 were used as donor and acceptor respectively. Interactions between GST PDZ‐fusion proteins and biotinylated peptides containing PDZ binding motifs were challenged with the potential inhibitors. In parallel, control experiments were performed with a biotinylated‐GST to verify that compounds were not interfering with the FRET signal in a non‐specific manner. To identify inhibitors of syntenin PDZ interactions, we tested for the effect of the 139 compounds on syntenin‐SDC2 and syntenin‐Frizzled7 complexes (Figure 1a; Table S1). When the HTRF signal dropped below 0.9, inhibition was considered as effective. […] Noteworthy, these compounds had no effect on other PDZ complexes like GRASP55‐JAM‐B or GRASP55‐JAM‐C and Erbin‐Erbb2 or Erbin‐P0071 (Figure 1c).

[2] = target: T1, syntenin‐PDZ tandem plus C‐terminal domain (Homo sapiens, UniProt O00560); assay: Surface plasmon resonance (BIAcore), syntenin PDZ tandem plus C-terminal domain; type: binding
T1 construct: made in house; host or cells: Biotin XCell F' E. coli cells
T1 sequence (O00560 107-298): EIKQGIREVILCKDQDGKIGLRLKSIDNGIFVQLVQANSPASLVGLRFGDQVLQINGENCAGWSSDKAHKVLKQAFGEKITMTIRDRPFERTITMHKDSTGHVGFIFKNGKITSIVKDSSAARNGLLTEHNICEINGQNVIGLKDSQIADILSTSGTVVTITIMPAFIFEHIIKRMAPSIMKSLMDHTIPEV
Description: All SPR experiments were conducted with a BIAcore T200 instrument (GE Healthcare), at 25°C. A total of 8000 resonance units (RU) of biotinylated ligands (N‐terminal 6xHis tagged biotinylated syntenin tandem, syntenin tandem with C terminus, GRASP55 tandem or GST as control) were immobilized on a streptavidin‐sensor chip (GE Healthcare). Analytes (C58 and SyntOFF compounds) were perfused at 30 µl per min in running buffer (10 mM HEPES pH 7.4, 150 mM NaCl, 0.005% Tween20) at different concentrations. The reference channel was N‐terminal 6xHis tagged biotinylated GST protein. The injection time was 240 s, long enough for the sensorgrams to reach equilibrium, and the dissociation time was 240 s. To carry out these SPR experiments, we employed the method known as ‘single‐cycle kinetics’ described in 2006 by Karlsson and co‐workers (Karlsson, Katsamba, Nordin, Pol, & Myszka, 2006). It consists in injecting the analyte at increasing concentrations, without regeneration steps between each sample injection to avoid that folded‐proteins can be damaged after regeneration steps. Equilibrium dissociation constants (KD) were calculated by fitting the data to a simple Langmuir binding isotherm using GraphPad Prism. For determination of the apparent KD, signals obtained at equilibrium were plotted as a function of compound concentration. […]

[3] = tested on: MCF‐7 cells; assay: Mammosphere formation assay, MCF-7; type: cell-based; settings: wild-type MCF-7, 50 & 100 µM
Description: MCF‐7 and MCF‐7 SyntKO cells were treated with increasing concentrations of compounds C58, SyntOFF (50‐100µM) or DMSO 0.2% as control. After 24 h, cells were trypsinized, re‐suspended in normal growth media and washed three times in PBS to remove serum. Cell concentration was determined using the LUNA-FL Automated Fluorescence Cell Counter (Logos Biosystem) and cells were then seeded at 1000 cells/ml in 6‐well Ultra low Adherence plates (Corning Inc., Corning, NY) in MEBM medium (Lonza) supplemented with 5 µg/ml insulin (Sigma‐Aldrich), 20 ng/ml recombinant epidermal growth factor (Sigma‐Aldrich), 1X of B27 supplement (Invitrogen, Carlsbad, CA, USA), 0.5 µg/ml hydrocortisone (Sigma‐Aldrich), 1X of β‐mercaptoethanol and 1% penicillin/streptomycin (Gibco). Fresh medium was added into the plates every 3–4 days. The number of spheres (diameter > 50 µm) was evaluated under microscope on days 7–10. Sphere formation was calculated as the number of spheres divided by the original number of cells seeded and normalized to control.

[4] = tested on: T2, Erbin‐Erbb2 complex; assay: HTRF assay, Erbin-ERBB2 interaction; type: biochemical, human; settings: 400µM compound; Figure 1c
T2 construct: human Erbin PDZ domain; made in house; host or cells: E. coli BL21 (DE3)
Description: as §1, §2

Row | Kd ([2]; DMSO as vehicle, read-out: KD, syntenin‐PDZ tandem plus C‐terminal domain) | SMILES | GST-biot (signal ratio) ([1]; 400µM compound, Figure 1c) | effect on control (biotinylated‐GST) FRET signals ([1]; HTRF primary screen, 400µM) | HTRF ASSAY GST-biot (HTRF signal ratio, control) ([1]; primary screen, 400 µM compound, Table S1) | Kd ([2]; compound in PBS, read-out: apparent KD, syntenin‐PDZ tandem plus C‐terminal domain) | mammosphere formation [3] | GST-Erbin ERBB2 (signal ratio) [4]
1 | – | CC(C)[C@H](NC(=O)CSc1ccc(Cl)cc1)C(=O)O [Compound C58] | 0.92 | no significant effect | 1.01 | 886 µM | decreases | 1.01
2 | 130 µM | CC(C)[C@H](NC(=O)CCSc1ccc(Cl)cc1)C(=O)O [SyntOFF, (S)‐2‐(3‐(4‐chlorophenylthio)propanamido)‐3‐methylbutanoic acid] | – | – | – | – | decreases | –
